This is an account of results in a melting point compilation (Tetko et al.).

The structures appear in SMILES notation.

For the series the following is noted: a range is the spread between reports.
As to `O=S1(=O)CCCO1`, the melting point is 31.5 to 32 °C.
Regarding `N#CCC(=O)O`, the melting point was 66 to 67 °C.
In the case of `Cc1ccc([N+](=O)[O-])cc1N`, the melting point is 106 to 108 °C.
The value for `Cc1ccc(C)o1` was -62.8 to -62 °C; that for `CCC(=O)O` was -21.1 to -20.7 °C; that for `CCC(=O)c1cc(F)c(O)c(F)c1` was 127 to 130 °C.
In the case of `CC1CC=CC1`, the melting point was -161 °C.
`Cc1cc(C)c(C)cc1C` showed a melting point of 79 to 80 °C.
The value for `C=CCC(C)CC` (centres undefined) was -142 to -141 °C.
`OCc1cccc(Oc2ccccc2)c1`: the melting point lay within 6 to 10 °C.
Take `O=C(O)c1ccoc1`: the melting point worked out at 122 °C.
As for `Oc1ccc(Cc2ccc(O)cc2)cc1`, the melting point lay in the range of 161 to 162 °C.
The value for `Oc1c(F)c(F)c(F)c(F)c1F` was 32.8 to 35 °C; that for `CC(=O)Nc1ccc(Cl)cc1` was 178 to 179 °C.
For `Cc1ccc(Br)cc1` the value was 25 to 28.5 °C; for `CC(C)(C)c1cccc(O)c1`, 41 to 45 °C.
The value for `CCCCCO` was -79 to -78 °C.
`CC(C(=O)O)c1ccc(N2Cc3ccccc3C2=O)cc1` (centres undefined) registered a melting point of 212 to 214 °C.
The value for `CCOC(=O)NCCOc1ccc(Oc2ccccc2)cc1` was 53 to 53.5 °C; that for `O=C(O)Cc1ccc(O)c(O)c1` was 128 to 129 °C.
The value for `Cc1cccc(C#N)c1` was -27 to -23 °C; that for `C[Si](c1ccccc1)(c1ccccc1)c1ccccc1` was 67 to 69.5 °C.
For `O=[N+]([O-])c1ccccc1F` the value was -8 to -6 °C; for `O=C(O)c1ccccc1-c1ccccc1C(=O)O`, 229 to 234 °C.
`CCNC(=O)C(=O)NCC` yielded a melting point of 175 to 180 °C.
For `CC(=O)Nc1cccc(O)c1` the value was 146 to 148 °C.
`Cc1ccc(C)cc1` yielded a melting point of 12 to 13.2 °C.
`C=C(C)C(C)(C)C`: the melting point is -110 °C.
`O=Cc1ccc2c(c1)OCO2`: the melting point was 36 to 37 °C.
In turn, `CCOC(=O)C(C)C` returned a melting point of -88.2 to -88 °C.
The value for `CCn1cc(C(=O)O)c(=O)c2cc(F)c(N3CCNC(C)C3)c(F)c21` (centres undefined) was 240 °C; that for `CCOC(=O)/C=C/C(=O)OCC` was 0 to 2 °C; that for `c1ccc2c(c1)CCO2` was -21.5 to -21 °C.
Consider `O=[N+]([O-])c1cccc(-c2ccccc2)c1`, for which the melting point is 59 to 62 °C.
The value for `O=S(=O)(Cl)c1ccc(Br)cc1` was 75 to 76 °C; that for `O=C(c1ccccc1)C1CCCCC1` was 55 to 56 °C; that for `N#Cc1ccc(C(N)=O)cc1` was 224 to 227 °C.
For `O=C(O)c1cccc(F)c1`, the melting point lay in the range of 123 to 124 °C.
The value for `CCCCCCCCCCBr` was -30 to -29 °C.
For `O=C(O)c1cc(Cl)cc(Cl)c1O`, the melting point lay in the range of 220 to 224 °C.
The value for `Cc1ccc(N)nc1` was 76 to 76.5 °C; that for `CCOC(C)=O` was -84 to -83.6 °C; that for `Cc1ccccc1C` was -25.2 to -25 °C.
The value for `C=CC(=O)O` was 12.5 to 13.5 °C; that for `O=C(O)c1ccc(O)c(Cl)c1` was 169 to 171 °C; that for `CCCC#CCCC` was -103 to -101 °C.
As to `FC(Cl)(Cl)Cl`, the melting point is -111 to -110 °C.
For `c1ccc(-c2cnc(-c3ccccc3)o2)cc1` the value was 72 to 74 °C; for `O=C1CCCCCCCCCCC1`, 60 to 61 °C; for `CCCCCCOC(C)=O`, -80.9 to -80 °C.
The value for `N#CCc1ccccc1` was -24 to -23.8 °C; that for `O=C(CCC(=O)OCc1ccccc1)OCc1ccccc1` was 45 to 49.5 °C.
`c1ccc2cc3ccccc3cc2c1` yielded a melting point of 215 to 218 °C.
As to `CCOc1ccc(I)cc1`, the melting point lay in the range of 28 to 29 °C.
For `N#Cc1ccc([N+](=O)[O-])cc1` the value was 145 to 149 °C.
The molecule `CCCCCCCCOc1ccc(C(=O)O)cc1` registered a melting point of 101 to 103 °C.
Consider `NC(=O)c1ccccc1F`, for which the melting point fell in the range of 116 to 118 °C.
The value for `COC(=O)c1ccc(O)cc1O` was 118 to 120 °C; that for `N#Cc1ccccc1-c1ccccc1` was 38 to 41 °C.
`Clc1ccc(-c2ccccc2)cc1` returned a melting point of 78 to 78.8 °C.
The value for `Cc1ccnc(N)n1` was 160 °C; that for `Cc1ccc2cccc(O)c2n1` was 72 to 73.8 °C.
Turning to `NC(=O)c1cc([N+](=O)[O-])cc([N+](=O)[O-])c1`, the melting point was in the range of 182 to 184 °C.
The value for `OCCCCCCO` was 42 to 45 °C; that for `BrCCCBr` was -34.2 to -34 °C; that for `c1ccc(P(CP(c2ccccc2)c2ccccc2)c2ccccc2)cc1` was 119 to 121 °C.
The value for `O=C(O)Cc1cccc(Cl)c1` was 78 to 79 °C; that for `c1ccc2nccnc2c1` was 28 to 30 °C.
The value for `Cc1cccc(C)c1I` was 11 to 11.2 °C.
Take `O=Cc1ccccc1`: the melting point was -56.9 to -55.6 °C.
For `O=C(O)[C@H](O)[C@@H](O)C(=O)O` the value was 169 to 171 °C; for `Brc1cccc(I)c1`, -9.3 to -9 °C; for `C=CCCCCCCC`, -83.2 to -81 °C.
The value for `O=C(O)CCCCCCCCCCC(=O)O` was 128 to 129 °C.
`O=C(Nc1ccccc1)c1ccccc1` registered a melting point of 163 to 164 °C.
For `CCCCCCCCC(C)O` (centres undefined) the value was -5 to -2 °C; for `c1ccc(Cc2ccccn2)cc1`, 10 to 12.5 °C; for `Nc1ccccc1Br`, 29 to 32 °C.
For `O=C1CCC1` the value was -52 to -50.9 °C.
For `Cc1cc(Cl)c(C)cc1Cl` the value was 68 to 71 °C; for `Cc1ccc(F)cc1[N+](=O)[O-]`, 26 to 27 °C.
The molecule `Cc1c[nH]c2ccccc12` registered a melting point of 95 °C.
For `CCCOC(=O)c1ccc(O)cc1` the value was 96 to 97 °C; for `O=Cc1ccc(Cl)cc1Cl`, 71 to 73 °C; for `O=Cc1ccc(-c2ccccc2)cc1`, 59 to 60 °C.
For `c1ccc2nc3ccccc3cc2c1`, the melting point lay in the range of 108 to 109 °C.
The value for `COP(=O)(OC)OC(=CCl)c1cc(Cl)c(Cl)cc1Cl` was 96 to 97.5 °C; that for `O=C(O)c1ccc([N+](=O)[O-])cc1Cl` was 139 to 142 °C.
For `Oc1ccc(I)cc1` the value was 92 to 94 °C; for `CC(=O)c1ccncc1`, 15 to 16 °C.
The value for `c1ccc2c(c1)Oc1ccccc1O2` was 122 °C; that for `CCC1(C(C)C)C(=O)NC(=O)NC1=O` was 198 to 203 °C; that for `CCC(C)(CO)CO` was 40.3 to 44 °C.
`Cc1occc(=O)c1O` registered a melting point of 162 to 163 °C.
`CCOC(=O)CCC(=O)OCC` displayed a melting point of -21 to -20 °C.
For `OC(COc1ccccc1)COc1ccccc1` the value was 81.5 to 82 °C; for `O=C(OCc1ccccc1)c1ccccc1`, 18 to 21 °C.
For `C=CC(=O)OCC` the value was -71.2 to -71 °C.
For `CC(C)[C@@H]1CC[C@@H](C)C[C@H]1O` the value was 42 to 44 °C.
As for `Clc1nc(Cl)nc(Nc2ccccc2Cl)n1`, the melting point came out at 160 °C.
For `C[C@H]1CC[C@@H](O)CC1` the value was -10 to -9.2 °C; for `Cc1c(Br)cc(Br)c(O)c1Br`, 82 to 84 °C.
The value for `N#CCCCCCCC#N` was -3.5 to -3 °C; that for `CCS(=O)(=O)CC` was 72 to 73.5 °C; that for `CCCCCCCCCCCCBr` was -10 to -9.5 °C.
For `CCCCCCCCO` the value was -16 to -15 °C; for `CCc1ccccn1`, -63.1 to -63 °C.
The molecule `CC12C=CC(=O)C=C1CCC1C2C(=O)CC2(C)C1CCC2(O)C(=O)CO` (centres undefined) came in with a melting point of 234 to 237 °C.
For `NNC(=O)c1ccc(N)cc1` the value was 226 to 228 °C.
`CCc1ccc(Br)cc1` had a melting point of -43.5 to -43 °C.
For `CC(=O)CC(C)C` the value was -84 to -80 °C.
The value for `O=S1(=O)CC=CC1` was 64.5 to 65 °C; that for `NS(=O)(=O)Cc1noc2ccccc12` was 162 °C; that for `CC(C)C1CC1` was -113 °C.
The value for `Nc1cc([N+](=O)[O-])ccc1Cl` was 118 to 121 °C.
`Cc1cccc(I)c1` came in with a melting point of -27.2 to -27 °C.
For `CN1CCC(=C2c3ccccc3C=Cc3ccccc32)CC1` the value was 112 to 113 °C.
For `NNC(=O)c1ccco1` the value was 79 to 80 °C.
`c1ccc2ncccc2c1`: the melting point is -15 to -14.8 °C.
For `O=C1OC(=O)c2c(Cl)c(Cl)c(Cl)c(Cl)c21` the value was 254 to 256 °C.
The value for `O=S(=O)(c1ccccc1)c1ccc(Cl)cc1` was 92 to 94 °C.
Take `CC(C)Nc1ccc(Nc2ccccc2)cc1`: the melting point lay in the range of 74 to 77 °C.
Consider `O=[N+]([O-])c1cccc(CO)c1`, for which the melting point fell in the range of 30.5 to 32 °C.
The molecule `CC1CC2C3CCC4=CC(=O)C=CC4(C)C3(F)C(O)CC2(C)C1(O)C(=O)CO` (centres undefined) came in with a melting point of 262 to 263 °C.
As to `CCCOC=O`, the melting point was -93 to -92.9 °C.
For `CCc1nc(C)c[nH]1` the value was 47 to 50.5 °C; for `CCCCOC(=O)c1ccc(N)cc1`, 57.5 to 58 °C.
The value for `COc1ccc(/N=N/c2ccccc2)cc1` was 53 to 56 °C; that for `N#Cc1ccccc1Cl` was 45 to 46.3 °C.
The value for `Fc1ccccc1I` was -42 to -41.5 °C; that for `C=CCC(C)C` was -154 to -153 °C.
`CCCCCCCCC(=O)CCCCCCCC`: the melting point fell in the range of 52 to 53 °C.
As for `CC(C)=CC(=O)O`, the melting point was 67 to 69.5 °C.
Turning to `COC(=O)C(C)C`, the melting point is -85 to -84.7 °C.
The value for `O=C(O)CCCCCc1ccccc1` was 18 to 23 °C.
For `COC=O` the value was -100 to -99 °C; for `O=Cc1cc(O)ccc1O`, 98 to 99 °C; for `FC(F)(F)c1ccccc1`, -29.1 to -27 °C.
For `COc1ccc(C(=O)O)cc1O` the value was 252 to 253 °C.
